Marks after values point to notes of the source that are not given here.
Key:
[1] = Pharmacokinetics in Beagle canines; type: in vivo; conditions: Beagle canines; 2 mg/kg; intragastrical administration
Description: Method: Six healthy male Beagle canines were selected and divided into two groups. 2 mg/kg of Compound 369 or cyclovirobuxine D was administrated intragastrically, respectively. Blood samples (about 2 mL) were collected from the limb venous of canines 0 h before administration as well as 0.25 h, 0.5 h, 1 h, 2 h, 4 h, 6 h, 8 h, and 12 h after administration. The concentrations of Compound 369 and cyclovirobuxine D in plasma samples were determined by LC-MS/MS, and the pharmacokinetic parameters were calculated by DAS.3.0 software.

guinea pig heart = experiment: Atrial fibrillation induced by high- and low-potassium Langendorff perfusion of the guinea pig heart; conditions: 1 μM; within 60 min of low-potassium perfusion
Description: Method: a total of 24 guinea pigs were divided into 4 groups according to body weight, and were sacrificed. The heart was quickly taken out, and the blood was squeezed in the ice bath perfusion solution. The heart was quickly transferred in the Langendorff perfusion system, and the perfusion at a constant rate was started by turning on the oxygen-saturated perfusate. One end of the electrode was placed at the cardiac apex, and one end was placed at the right atrium (the position of the atrial appendage). The electrocardiogram was recorded on the computer.
After the heart was stabilized, 10 min after the perfusion of high-K perfusate, blank vehicle, 0.1 μM, 1 μM, and 10 μM of Compound 369, 1 μM Amiodarone and Cyclovirobuxine D were simultaneously administrated and the high K perfusion was continued for 20 min, respectively. Then, the high K perfusion was removed to administrate the low-K perfusate, and the electrocardiogram was obtained at the same time to record whether there was atrial fibrillation within 60 min of low-potassium perfusion.

KM mice = experiment: Single-dose toxicity (MTD) in KM mice; type: in vivo; conditions: KM mouse; single intragastrical administration
Description: (§1) The results of the experimental study on the toxicity of Compound 369 administrated through a single intravenous or intragastrical administration in SD rats and KM mice are shown in Table 9.

SD rats [2] = experiment: Single-dose toxicity (MTD) in SD rats; type: in vivo; conditions: SD rat; single intravenous injection
Description: as §1

[3] = tested on: ventricular myocytes of guinea pig; conditions: literature, cited from earlier work
SD rats [4] = experiment: Rat myocardial ischemia model with coronary artery ligation and reperfusion (arrhythmia incidence); type: in vivo; conditions: injection (sublingually) 5 min before ischemia
Description: Method: SD rats were anesthetized with pentobarbital, and a cervical midline incision was made to separate and cut off the trachea such that it was connected to a respirator. The skin was cut along the midline of the left clavicle of the rat, and the chest was opened between the left third and fourth ribs to gently squeeze out the heart. The pericardium was opened, the needle was inserted at the left edge of the pulmonary artery cone and 2 mm at the lower edge of the left atrial appendage. The 6-0 non-invasive suture was threaded through the superficial myocardium, with the left anterior descending coronary artery (LAD) located thereon. After stabilization for 5 min, a double-layer plastic cannula was put on, and the cable tie was tighten to complete the myocardial ischemia induced by left coronary artery occlusion. The criterion for myocardial ischemia is the occurrence of myocardial infarction (St-segment ran up or T-wave was shown as high sharp wave) in the electrocardiogram and the presence of local cyanosis in the heart. After 5 min of myocardial ischemia, the inner cannula was withdrawn, that is, the wire knot was released for reperfusion, and the electrocardiogram of reperfusion in the rat was recorded.
The administration was performed at 5 min before the ischemia by coronary artery ligation, and the administration mode was injection administration (sublingually).

[5] = Pharmacokinetics in SD rats; type: in vivo, rat; conditions: SD rats, 2 mg/kg
Description: Method: twelve SD male rats were divided into four groups: 2 mg/kg of Compound 369 or cyclovirobuxine D was single dose through the intravenous injection or intragastrical administration, respectively. In the intravenous and intragastrical groups, blood samples (about 0.3 Ml) were collected from the posterior orbital venous plexus pro-dose and 0.25 h, 0.5 h, 1 h, 2 h, 4 h, 6 h, 8 h, and 12 h post-dose. The concentrations of Compound 369 and cyclovirobuxine D in plasma samples were determined by LC-MS/MS, and the pharmacokinetic parameters were calculated by DAS.3.0 software.

[6] = tested on: ventricular papillary muscle cell of guinea pig; experiment: Action potential of the ventricular papillary muscle cell of guinea pig (electrophysiological recording); type: cell-based; conditions: for Effect on the APD value of the action potential of the papillary muscle (in words): Table 3 summary
Description: Method: One guinea pig was taken to violently hit the back of the brain such that it fainted. The common carotid artery was cut off for bleeding to kill the guinea pig. The chest was incised to expose the heart, and the ventricle was cut open along the interventricular septum to expose the lumen of the left ventricle. The papillary muscles were quickly taken out and placed in a Kreb's solution saturated with O2 (mixed gas of 95% O2 and 5% CO2) at 0° C. After the microscopic dressing, the papillary muscle specimen was fixed with a stainless steel needle on the silicone rubber at the bottom of the perfusion bath, and perfused with the oxygen-saturated Kreb's solution. The relevant parameters for perfusion: the temperature was 37±0.5° C., and the flow rate was 4 mL/min.
Cellular action potentials were recorded using a conventional electrophysiological method. The glass electrode filled with 3M KCl saturated solution and having a tip resistance of 15-30 MΩ was fixed on the microelectrode manipulator MP-2. The glass electrode was gently inserted into the superficial layer of the prepared papillary muscle specimen using a microelectrode pusher. The electrode was adjusted to provide the predetermined bioelectrical stimulation with the triple-channel SEN-7203 electronic stimulator and SS-202 J isolator. The bioelectrical signal was amplified by the MEZ-8301 amplifier and then input to the computerized electrophysiological recording and analysis system Powerlab 4/25. Subsequently, the relevant parameters of the action potential for the ventricular papillary muscle were analyzed through the analysis system. The relevant parameters for electrical stimulation: 30 ms latency, 7 ms wavewidth, 1 Hz frequency, 52.1 my stimulation intensity.
In the compound screening test stage, after the ventricular papillary muscle specimen of the guinea pig was fixed, it was first perfused with a normal Kreb's solution for about 85 minutes for stabilization, and the relevant parameters of the cellular action potential before administration were recorded at about 80 min after the start of perfusion. The three-limb tube was used to convert the perfusates containing the title compounds. The title compounds were continuously perfused for about 25 min successively with low (0.0005 μM), medium (0.005 μM), and high (0.05 μM) concentrations, respectively. At about 20 min after the start of drug perfusions at different concentrations, the relevant parameters of the action potentials for the ventricular papillary muscle of guinea pig were observed and recorded, respectively. The normal Kreb's solution was used to perfuse and elute for about 25 min during the intervals between drug perfusions at different concentrations.
The experiment was divided into the following five groups with 6 animals in each group: a vehicle control group, a 369 low dose (0.0005 μM) group, a 369 medium dose (0.005 μM) group, a 369 high dose (0.05 μM) group, and an amiodarone (10 μM) positive control group. After the ventricular papillary muscle specimen of the guinea pig was fixed, it was first perfused with a normal Kreb's solution for about 85 minutes for stabilization, and the relevant parameters of the cellular action potential before administration were recorded at about 80 min after the start of perfusion. According to groups, the three-limb tube was configured to convert the perfusates containing the vehicle, positive control, or Compound 369 at the corresponding concentrations to continuously perfuse for about 25 min. At about 20 min after the start of the perfusions, the relevant parameters of the action potentials for the ventricular papillary muscle of guinea pig were observed and recorded.

[7] = n = 6, x ± SD, 10 μM group, baseline
[8] = Cavia porcellus, 20 min, screening stage, 0.0005 μM, read-out: APD, Change rate (%)
[9] = Cavia porcellus, 20 min, screening stage, 0.005 μM, read-out: APD, Change rate (%)
[10] = Cavia porcellus, 20 min, screening stage, 0.05 μM, read-out: APD, Change rate (%)
[11] = screening stage, 0.0005 μM, about 20 min perfusion
[12] = screening stage, 0.005 μM, about 20 min perfusion
[13] = screening stage, 0.05 μM, about 20 min perfusion

`CN[C@@H](C)[C@H]1[C@H](O)C[C@@]2(C)[C@@H]3CC[C@H]4C(C)(C)[C@@H](NC)CC[C@@]45C[C@@]35CC[C@]12C` [Cyclovirobuxine D, reference compound] showed an AUCt [1] of 274.3 ng·h/mL, a Cmax [1] of 19.09 ng/mL and a T1/2 [1] of 15.90 h. The Tmax [1] was 3.55 h, the “Incidence (%) of atrial fibrillation” value (guinea pig heart) was 83% and the “Number of animals developing atrial fibrillation” value (guinea pig heart) was 5. For the same compound, the “Maximum tolerance dose (MTD)” value (KM mice) was 400 mg/kg, the “Maximum tolerance dose (MTD)” value (SD rats [2]) was 5 mg/kg and the “Effect on APD of the action potential (in words)” value ([3]; 0.024 μM) was “can prolong the APD”. For the same compound, the “Spontaneous activity frequency of cardiomyocytes (in words)” value ([3]; 0.012-0.036 μM) was “slow down or even disappear”, the “Death (%)” value (SD rats [4]; 1 mg/kg) was 50% and the Death n (SD rats [4]; 1 mg/kg) was 3. The “Ventricular fibrillation (%)” value (SD rats [4]; 1 mg/kg) was 83%, the Ventricular fibrillation n (SD rats [4]; 1 mg/kg) was 5 and the “Ventricular premature beat (%)” value (SD rats [4]; 1 mg/kg) was 100%. The “Ventricular premature beat n” value (SD rats [4]; 1 mg/kg) was 6, the “Ventricular tachycardia (%)” value (SD rats [4]; 1 mg/kg) was 100% and the Ventricular tachycardia n (SD rats [4]; 1 mg/kg) was 6. The AUCt ([5]; intragastrical administration) was 110.6 ng·h/mL, the Cmax ([5]; intragastrical administration) was 16.30 ng/mL and the F ([5]; intragastrical administration) was 36%. For the same compound, the T1/2 ([5]; intragastrical administration) was 18.85 h, the Tmax ([5]; intragastrical administration) was 2.75 h and the AUCt ([5]; intravenous injection) was 310.0 ng·h/mL. For the same compound, the Cmax ([5]; intravenous injection) was 146.2 ng/mL, the T1/2 ([5]; intravenous injection) was 8.54 h and the Tmax ([5]; intravenous injection) was 0.25 h.
With `CCCCc1oc2ccccc2c1C(=O)c1cc(I)c(OCCN(CC)CC)c(I)c1` [Amiodarone, reference compound] the “Incidence (%) of atrial fibrillation” value (guinea pig heart) was 17%, the “Number of animals developing atrial fibrillation” value (guinea pig heart) was 1 and the percent change in action potential duration at 10 µM ([6]; Cavia porcellus, 20 min, n = 6, x ± SD, 10 μM, read-out: APD, Change rate (%)) was 56.8%. The “APD50, Change rate (%)” value ([6]; n = 6, x ± SD, 10 μM) was 93.34% ± 53.59%^b, the “APD50, Post-administration” value ([6]; n = 6, x ± SD, 10 μM) was 0.0590 ± 0.0269^a and the “APD90, Change rate (%)” value ([6]; n = 6, x ± SD, 10 μM) was 68.91% ± 33.59%^b. The “APD90, Post-administration” value ([6]; n = 6, x ± SD, 10 μM) was 0.0862 ± 0.0275^a, the “APD, Post-administration” value ([6]; n = 6, x ± SD, 10 μM) was 0.1028 ± 0.0258^a and the “APD50, Pre-administration” value [6, 7] was 0.0313 ± 0.0131. The “APD90, Pre-administration” value [6, 7] was 0.0524 ± 0.0175, the “Death (%)” value (SD rats [4]; 3 mg/kg) was 13% and the Death n (SD rats [4]; 3 mg/kg) was 1. For the same compound, the “Ventricular fibrillation (%)” value (SD rats [4]; 3 mg/kg) was 38%, the Ventricular fibrillation n (SD rats [4]; 3 mg/kg) was 3 and the “Ventricular premature beat (%)” value (SD rats [4]; 3 mg/kg) was 100%. The “Ventricular premature beat n” value (SD rats [4]; 3 mg/kg) was 8, the “Ventricular tachycardia (%)” value (SD rats [4]; 3 mg/kg) was 87% and the Ventricular tachycardia n (SD rats [4]; 3 mg/kg) was 7.
For `CN[C@H]1CC[C@]23C[C@]24CC[C@]2(C)C(C(C)=O)=C(F)C[C@@]2(C)[C@@H]4CC[C@H]3C1(C)C` [Compound 387, (3β,5α)-4,4,14-trimethyl-16-fluoro-3-(methylamino)-9,19-cyclopregnan-16-en-20-one], the percent change in action potential duration at 0.0005 µM [6, 8] was 8.49%, the percent change in action potential duration at 0.005 µM [6, 9] was 19.8% and the percent change in action potential duration at 0.05 µM [6, 10] was 24.2%. The “Effect on the APD value of the action potential of the papillary muscle (in words)” value ([6]; screening stage) was “a certain degree of prolonged effects”, the “APD, Post-administration” value [6, 11] was 0.0869 and the “APD, Post-administration” value [6, 12] was 0.0944. For the same compound, the “APD, Post-administration” value [6, 13] was 0.0985.
Compound `CCN(C)[C@H]1CC[C@]23C[C@]24CC[C@]2(C)C(C(C)=O)=CC[C@@]2(C)[C@@H]4CC[C@H]3C1(C)C` [Compound 397, (3β,5α)-4,4,14-trimethyl-3-(methylethylamino)-9,19-cyclopregnan-16-en-20-one] has a percent change in action potential duration at 0.0005 µM [6, 8] of 7.68%, a percent change in action potential duration at 0.005 µM [6, 9] of -3% and a percent change in action potential duration at 0.05 µM [6, 10] of 11.8%. The “APD, Post-administration” value [6, 11] was 0.0785, the “APD, Post-administration” value [6, 12] was 0.0711 and the “APD, Post-administration” value [6, 13] was 0.0841.
In the case of `CN[C@H]1CC[C@]23C[C@]24CC[C@]2(C)C(C(=O)CO)=CC[C@@]2(C)[C@@H]4CC[C@H]3C1(C)C` [Compound 385, (3β,5α)-4,4,14-trimethyl-21-hydroxy-3-(methylamino)-9,19-cyclopregnan-16-en-20-one], the percent change in action potential duration at 0.0005 µM [6, 8] is reported as 16.4%, the percent change in action potential duration at 0.005 µM [6, 9] is reported as 27.4% and the percent change in action potential duration at 0.05 µM [6, 10] is reported as 40.1%. For the same compound, the “Effect on the APD value of the action potential of the papillary muscle (in words)” value ([6]; screening stage) was “a certain degree of prolonged effects”, the “APD, Post-administration” value [6, 11] was 0.0796 and the “APD, Post-administration” value [6, 12] was 0.0893. For the same compound, the “APD, Post-administration” value [6, 13] was 0.975.

From patent publication US10568892B2, “Cycloartane tetracyclic triterpenoid compound, preparation method therefor and use thereof” (Hefei Cosource Pharmaceuticals Inc., priority 2016, dated 2020)
